Here are results for 27 molecules from BindingDB's records for doi:10.1021/jm00057a008 (American Cyanamid, 1993).

Some results are limits rather than exact numbers.

This assay deals with Platelet-activating factor receptor (Oryctolagus cuniculus). As to the kind of experiment: Inhibition of PAF-induced platelet aggregation in rabbit platelet rich plasma.
`CCCCCCCCCCCCCCOc1ccc(C(=O)N(Cc2cccc[n+]2C)C(C)=O)cc1OC` [2-{[Acetyl-(3-methoxy-4-tetradecyloxy-benzoyl)-amino]-methyl}-1-methyl-pyridinium; iodide]: it took 0.064 µM to reach half-maximal inhibition (IC50).

On to `CCCCCCCCCCCCCCOc1cc(C(=O)N(Cc2cccc[n+]2C)C(C)=O)ccc1OC` [2-{[Acetyl-(4-methoxy-3-tetradecyloxy-benzoyl)-amino]-methyl}-1-methyl-pyridinium; iodide], for which the IC50 (commonly the concentration that inhibits the measured activity by half) worked out at 160 µM.

Turning to `CCCCCCCCCCOc1ccc(C(=O)N(Cc2cccc[n+]2C)C(C)=O)cc1C(C)(C)C` [2-{[Acetyl-(3-tert-butyl-4-decyloxy-benzoyl)-amino]-methyl}-1-methyl-pyridinium; iodide], it took 10 µM to reach half-maximal inhibition (IC50).

As for `CCCCCCCCCCCCCCCCCCNC(=O)Oc1ccc(C(=O)N(Cc2cccc[n+]2C)C(C)=O)cc1C(C)(C)C` [2-{[Acetyl-(3-tert-butyl-4-octadecylcarbamoyloxy-benzoyl)-amino]-methyl}-1-methyl-pyridinium; iodide], the IC50 is above 10 µM.

For `CCCCCCCCCCCCCCOc1ccc(CN(Cc2cccc[n+]2CC)C(C)=O)cc1` [2-{[Acetyl-(4-tetradecyloxy-benzyl)-amino]-methyl}-1-ethyl-pyridinium; iodide], the midpoint of inhibition, the IC50, lay at 8.3 µM.

Take `CCCCCCCCCCCCCCOc1ccc(CN(Cc2cc[n+](C)cc2)C(C)=O)cc1` [4-{[Acetyl-(4-tetradecyloxy-benzyl)-amino]-methyl}-1-methyl-pyridinium; iodide]: the IC50 is 1 µM.

As for `CCCCCCCCCCCCCCOc1ccc(COC(=O)N(Cc2cccc[n+]2C)C(C)=O)cc1` [2-{[Acetyl-(4-tetradecyloxy-benzyloxycarbonyl)-amino]-methyl}-1-methyl-pyridinium; iodide], the half-maximal inhibitory concentration (IC50) was above 10 µM.

`CCCCCCCOc1ccc(C(=O)N(Cc2cccc[n+]2C)C(C)=O)cc1OCCCCCCC` [2-{[Acetyl-(3,4-bis-heptyloxy-benzoyl)-amino]-methyl}-1-methyl-pyridinium; iodide]: the IC50 amounted to 3.7 µM.

Take `CCCCCCCCCCCCCCOc1ccc(C(=O)NC(=O)c2ccc[n+](CCC)c2)cc1OC` [3-(3-Methoxy-4-tetradecyloxy-benzoylaminocarbonyl)-1-propyl-pyridinium; iodide]: the IC50 is above 10 µM.

`CCCCCCCCCCCCCCOc1ccc(C(=O)N(Cc2cccc[n+]2C)C(C)=O)cc1` [2-{[Acetyl-(4-tetradecyloxy-benzoyl)-amino]-methyl}-1-methyl-pyridinium; iodide]: the IC50 was found to be 0.95 µM.

Molecule `CCCCCCCCCCCCCCOc1ccc(C(=O)N(Cc2cccc[n+]2C)C(C)=O)cc1C(C)(C)C` [2-{[Acetyl-(3-tert-butyl-4-tetradecyloxy-benzoyl)-amino]-methyl}-1-methyl-pyridinium; iodide] displayed an IC50 of 0.022 µM.

For the molecule `CCCCCCCCCCCCCCOc1ccc(C(=O)NCc2cccc[n+]2C)cc1` [1-Methyl-2-[(4-tetradecyloxy-benzoylamino)-methyl]-pyridinium; iodide], the half-inhibitory concentration (IC50) was above 10 µM.

Consider `CCCCCCCCCCCCCCOc1ccc(C(=O)N(Cc2cccc[n+]2[O-])C(C)=O)cc1C(C)(C)C` [N-Acetyl-3-tert-butyl-N-(1-oxy-pyridin-2-ylmethyl)-4-tetradecyloxy-benzamide], for which the concentration for half-maximal inhibition (IC50) is above 10 µM.

Molecule `CCCCCCCCCCCCCCOc1ccc(C(=O)N(Cc2ccc[n+](C)c2)C(C)=O)cc1` [3-{[Acetyl-(4-tetradecyloxy-benzoyl)-amino]-methyl}-1-methyl-pyridinium; iodide] displayed an IC50 of 6.8 µM.

`CCCCCCCCCCCCCCOc1ccccc1CN(Cc1cccc[n+]1C)C(C)=O` [2-{[Acetyl-(2-tetradecyloxy-benzyl)-amino]-methyl}-1-methyl-pyridinium; iodide] came in with a half-maximal inhibitory concentration (IC50) of 43 µM.

In turn, `CCCCCCCCCCCCCCOc1ccc(C(=O)N(Cc2cccc[n+]2C)C(C)=O)cc1OCCCCCCCCCCCCCC` [2-{[Acetyl-(3,4-bis-tetradecyloxy-benzoyl)-amino]-methyl}-1-methyl-pyridinium; iodide] returned an IC50 above 10 µM.

The molecule `CCCCCCCCCCCCCCOc1ccc(C(=O)NCCc2cccc[n+]2C)cc1` [1-Methyl-2-[2-(4-tetradecyloxy-benzoylamino)-ethyl]-pyridinium; iodide] came in with an IC50 above 10 µM.

Turning to `CCCCCCCCCCCCCCOc1ccc(C(=O)N(Cc2cccc[n+]2Cc2ccccc2)C(C)=O)cc1` [2-{[Acetyl-(4-tetradecyloxy-benzoyl)-amino]-methyl}-1-benzyl-pyridinium; bromide], the IC50 stood at 330 µM.

In turn, `CCCCCCCCCCCCCCOc1ccc(COC(=O)NCc2cccc[n+]2CC)cc1` [Trifluoro-methanesulfonate1-ethyl-2-[(4-tetradecyloxy-benzyloxycarbonylamino)-methyl]-pyridinium;] returned a half-inhibitory concentration (IC50) above 10 µM.

Turning to `CCCCCCCCCCCCCCOc1ccc(CNC(=O)c2cc[n+](C)cc2)cc1` [1-Methyl-4-(4-tetradecyloxy-benzylcarbamoyl)-pyridinium; iodide], the 50% inhibitory concentration (IC50) was 60 µM.

`CCCCCCCCCCCCCCOc1ccc(CNC(=O)c2cccc[n+]2CC)cc1` [Trifluoro-methanesulfonate1-ethyl-2-(4-tetradecyloxy-benzylcarbamoyl)-pyridinium;]: the IC50 is above 10 µM.

`CCCCCCCCCCCCCCOc1ccc(C(=O)N(Cc2cccc[n+]2CC)C(C)=O)cc1OC` [2-{[Acetyl-(3-methoxy-4-tetradecyloxy-benzoyl)-amino]-methyl}-1-ethyl-pyridinium; iodide]: the IC50 was determined as 0.16 µM.

As for `CCCCCCCCCCCCCCOc1ccc(C(=O)N(Cc2ccc[n+](C)c2)C(C)=O)cc1C(C)(C)C` [3-{[Acetyl-(3-tert-butyl-4-tetradecyloxy-benzoyl)-amino]-methyl}-1-methyl-pyridinium; iodide], the IC50 came out at 20 µM.

In turn, `CCCCCCCCCCCCCCOc1ccc(C(=O)N(Cc2cccc[n+]2CCC)C(C)=O)cc1OC` [Trifluoro-methanesulfonate2-{[acetyl-(3-methoxy-4-tetradecyloxy-benzoyl)-amino]-methyl}-1-propyl-pyridinium;] gave an IC50 of 0.1 µM.

In turn, `CCCCCCCCCCCCCCOc1ccc(CC(=O)NCc2cccc[n+]2C)cc1` [1-Methyl-2-{[2-(4-tetradecyloxy-phenyl)-acetylamino]-methyl}-pyridinium; iodide] yielded a 50% inhibitory concentration (IC50) above 10 µM.

As to `CCCCCCCCCCCCCCOc1ccc(CN(Cc2ccc[n+](C)c2)C(C)=O)cc1` [3-{[Acetyl-(4-tetradecyloxy-benzyl)-amino]-methyl}-1-methyl-pyridinium; iodide], the half-maximal inhibitory concentration (IC50) is above 10 µM.

On to `CCCCCCCCCCCCCCOc1ccc(CC(=O)NCCc2cccc[n+]2C)cc1` [1-Methyl-2-{2-[2-(4-tetradecyloxy-phenyl)-acetylamino]-ethyl}-pyridinium; iodide], for which the midpoint of inhibition, the IC50, lay at 15 µM.
